What all share (assay): Growth on glyceryl glyphosate as sole phosphate source
Format in all cases: cell-based

Test [1] concerns CP4. The conditions noted are these: strain CP4; 0.2 mM in DF minimal medium. The procedure:
(§1) Bacteria capable of degrading glyphosate are known (Hallas et al., 1988; Malik et al., 1989; and Moore et al., 1983; Heitkamp et al., 1990). Five of these bacteria (PG2482, LBAA, T10, T12 and CP4) and four strains of E. coli were screened for the rapid degradation of glyceryl glyphosate into inorganic phosphate. The bacteria were inoculated into 2 ml Dworkin-Foster(DF) minimal medium containing glucose, sodium gluconate and potassium citrate (each 0.1%) as carbon source and containing 0.2 mM glyceryl glyphosate as a phosphate source. The Dworkin-Foster minimal medium was made by combining 1 liter sterile H2 O with 1 ml each of A, B, C, E and F, 10 ml D, C-sources to final concentration of 0.1% each and P-source to 0.2 mM.
(§2) Bacteria which grew in this medium using glyceryl glyphosate as a sole phosphate source had the ability to cleave both the ester and the phosphonate bond to release the free phosphate. For these bacteria to be useful in the present invention, the first step in the mineralization of glyceryl glyphosate needed is the hydrolysis of the phosphonate ester. Each of the three bacteria which utilized glyceryl glyphosate as a phosphate source were then assayed for a phosphonate monoester hydrolase activity using an in vivo (3-^14 C-) glyceryl glyphosate assay. A 150 ml culture of each bacteria was grown in DF minimal medium with 0.2 mM HK2 PO4 as a phosphate source in a 500 ml flask, 30° C., with shaking. The bacteria were pelleted by centrifugation at 5,000×g for 10 min and resuspended at 10 mg fresh weight/ml. An assay mix included 50 μl cells plus 10 μl (3-^14 C-) glyceryl glyphosate (10,000 cpm/μl) and kept at 30° C. with shaking. After a three hour incubation period, the cells were pelleted in a microfuge and the supernatant injected onto an HPLC anion exchange column and glyphosate analyzed as described above. The pellet was washed twice with 1 ml 10 mM HEPES, pH 7.0, and resuspended in 25 μl buffer. The cells were lysed with 25 μl quench and the debris pelleted in a microfuge. The pellet extract was then analyzed for glyphosate product as described above. Glyphosate was found in the pellet extracts of these three bacteria indicating the presence of a phosphonate monoester hydrolase activity in these organisms.

Test [2] relates to E. coli MM294, JM101, JM101/MPU+, SR200/MPU. The conditions noted are these: E. coli strains; 0.2 mM in DF minimal medium. The procedure:
as §1, §2

Test [3] deals with LBAA. Conditions: strain LBAA; 0.2 mM in DF minimal medium. Here is the method:
as §1, §2

Test [4] deals with T10. Conditions: strain T10; 0.2 mM in DF minimal medium. The procedure: as §1, §2
Test [5] has as its system T12. The conditions noted are these: strain T12; 0.2 mM in DF minimal medium. Here is the method:
as §1, §2

We go through 1 compound from patent US5254801A, “Heterologous dominant conditional lethal gene which is a phosphonate monoester hydrolase and use thereof in plants” (Monsanto Company, priority 1990, dated 1993).

Take `O=C(O)CNCP(=O)(O)OCC(O)CO` (centres unmarked) [glyceryl glyphosate, glycine, N-([hydroxy (2,3 dihydroxy propoxy)phosphonyl]methyl)]: the “Glyceryl Glyphosate as Phosphate Source” value in test [1] is reported as “No”; in test [2] it was “No”; in test [3] it was “Yes”; in test [4] it was “Yes”; in test [5], “No”.
